Measurements from patent publication US9902696B2, “1,4-substituted piperidine derivatives” (Cephalon, Inc., priority 2015, dated 2018).
Where a name gives a salt, the structure may show the parent alone.

Molecular target: T1, recombinant human baculovirus-expressed GST-tagged FASN (Homo sapiens, UniProt P49327)
T1 construct: GST
Assay: FASN enzyme activity assay, fluorescence-based detection of CoA with CPM
Assay type: biochemical
Conditions: 5 nM FASN, 150 μM NADPH, 10 μM acetyl-CoA, 25 μM malonyl-CoA, 90 minutes incubation; read-out: IC50 data for Additional Compounds of Formulae I-V(a): Activity
How it was run: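 Human GST-tagged FASN, baculovirus-expressed (5 nM), in 50 mM HEPES pH 7.5 with 150 μM NADPH, 10 μM acetyl-CoA, 25 μM malonyl-CoA, 0.5% DMSO; malonyl-CoA-started, 90 min. Released CoA detected with CPM (50 μM dilution), 30 min, fluorescence ex 390/em 530. IC50 from variable-slope sigmoidal fit of % inhibition versus log concentration.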

T1 sequence (P49327 whole entry): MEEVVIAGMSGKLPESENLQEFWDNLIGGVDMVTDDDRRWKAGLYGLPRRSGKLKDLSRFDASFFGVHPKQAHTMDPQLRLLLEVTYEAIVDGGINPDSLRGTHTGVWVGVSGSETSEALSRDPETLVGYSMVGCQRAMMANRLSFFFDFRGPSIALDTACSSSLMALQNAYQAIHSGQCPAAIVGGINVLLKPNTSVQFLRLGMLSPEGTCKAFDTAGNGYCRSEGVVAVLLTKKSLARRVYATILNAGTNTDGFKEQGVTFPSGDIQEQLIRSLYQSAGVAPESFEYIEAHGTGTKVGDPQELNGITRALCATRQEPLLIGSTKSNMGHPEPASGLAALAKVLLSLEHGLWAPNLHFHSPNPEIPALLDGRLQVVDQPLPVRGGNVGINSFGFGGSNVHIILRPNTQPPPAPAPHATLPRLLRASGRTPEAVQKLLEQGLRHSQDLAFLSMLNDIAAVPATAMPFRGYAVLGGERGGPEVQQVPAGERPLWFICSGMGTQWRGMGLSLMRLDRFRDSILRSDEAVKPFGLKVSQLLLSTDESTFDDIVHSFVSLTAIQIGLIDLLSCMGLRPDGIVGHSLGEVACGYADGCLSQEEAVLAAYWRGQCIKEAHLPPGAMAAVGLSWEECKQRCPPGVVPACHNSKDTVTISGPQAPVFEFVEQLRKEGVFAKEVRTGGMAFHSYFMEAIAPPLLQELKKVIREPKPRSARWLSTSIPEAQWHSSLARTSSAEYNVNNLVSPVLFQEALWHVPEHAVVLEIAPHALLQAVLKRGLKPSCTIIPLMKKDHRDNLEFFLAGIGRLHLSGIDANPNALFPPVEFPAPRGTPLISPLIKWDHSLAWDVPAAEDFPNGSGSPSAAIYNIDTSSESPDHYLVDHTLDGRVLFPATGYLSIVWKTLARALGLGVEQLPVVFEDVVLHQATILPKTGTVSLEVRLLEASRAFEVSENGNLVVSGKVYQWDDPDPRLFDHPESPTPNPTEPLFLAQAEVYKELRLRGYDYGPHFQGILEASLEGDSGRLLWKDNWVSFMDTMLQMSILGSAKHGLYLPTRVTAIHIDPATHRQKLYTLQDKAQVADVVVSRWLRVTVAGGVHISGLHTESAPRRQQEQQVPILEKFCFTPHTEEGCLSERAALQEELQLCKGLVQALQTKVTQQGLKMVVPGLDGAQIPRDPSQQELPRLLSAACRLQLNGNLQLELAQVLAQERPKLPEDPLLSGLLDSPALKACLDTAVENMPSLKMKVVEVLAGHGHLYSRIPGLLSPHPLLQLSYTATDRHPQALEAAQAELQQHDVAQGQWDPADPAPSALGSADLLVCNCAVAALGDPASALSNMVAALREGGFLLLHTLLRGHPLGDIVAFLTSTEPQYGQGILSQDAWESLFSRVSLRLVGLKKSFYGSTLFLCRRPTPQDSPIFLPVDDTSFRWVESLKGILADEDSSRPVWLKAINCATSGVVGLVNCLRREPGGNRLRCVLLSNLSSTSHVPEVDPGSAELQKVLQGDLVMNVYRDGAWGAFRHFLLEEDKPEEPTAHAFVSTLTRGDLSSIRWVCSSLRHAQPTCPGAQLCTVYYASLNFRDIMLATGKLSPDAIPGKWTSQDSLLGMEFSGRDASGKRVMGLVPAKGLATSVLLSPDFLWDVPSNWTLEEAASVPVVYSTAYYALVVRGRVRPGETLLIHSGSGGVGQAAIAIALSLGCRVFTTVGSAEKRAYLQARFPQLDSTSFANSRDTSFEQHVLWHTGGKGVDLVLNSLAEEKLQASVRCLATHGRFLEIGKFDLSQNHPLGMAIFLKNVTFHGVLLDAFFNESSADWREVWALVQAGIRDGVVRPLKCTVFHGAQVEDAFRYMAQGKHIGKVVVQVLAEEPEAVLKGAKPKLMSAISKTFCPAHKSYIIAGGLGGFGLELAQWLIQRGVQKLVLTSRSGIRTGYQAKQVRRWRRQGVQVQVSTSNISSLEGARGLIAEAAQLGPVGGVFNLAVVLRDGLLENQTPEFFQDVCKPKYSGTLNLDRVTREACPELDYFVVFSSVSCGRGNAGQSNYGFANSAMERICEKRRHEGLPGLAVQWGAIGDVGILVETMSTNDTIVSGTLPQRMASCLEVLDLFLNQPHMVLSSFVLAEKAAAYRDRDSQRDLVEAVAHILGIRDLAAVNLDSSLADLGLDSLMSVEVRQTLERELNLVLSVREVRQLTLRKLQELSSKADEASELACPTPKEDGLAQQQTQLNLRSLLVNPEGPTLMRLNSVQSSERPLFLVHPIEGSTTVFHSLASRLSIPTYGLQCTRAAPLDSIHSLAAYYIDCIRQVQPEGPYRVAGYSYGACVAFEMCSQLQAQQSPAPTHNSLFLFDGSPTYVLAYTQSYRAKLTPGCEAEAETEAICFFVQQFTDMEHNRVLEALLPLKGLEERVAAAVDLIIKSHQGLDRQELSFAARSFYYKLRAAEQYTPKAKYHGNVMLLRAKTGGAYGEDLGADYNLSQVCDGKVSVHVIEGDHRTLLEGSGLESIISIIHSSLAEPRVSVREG

IC50, 1 to 99 nM:
CC(=O)OCC(=O)N1CCC(Oc2ccc(-c3ccc4cccnc4c3C)cc2)CC1 [Example 625, [2-[4-[4-(8-Methyl-7-quinolyl)phenoxy]-1-piperidyl]-2-oxo-ethyl]acetate]
Cc1c(-c2ccc(OC3CCN(C(=O)CO)CC3)cc2)ccc2cccnc12 [Example 626, 2-Hydroxy-1-[4-[4-(8-methyl-7-quinolyl)phenoxy]-1-piperidyl]ethanone]
Cc1c(-c2ccc(OC3CCN(C(=O)CN)CC3)cc2)ccc2cccnc12 [Example 609, 2-Amino-1-[4-[4-(8-methyl-7-quinolyl)phenoxy]-1-piperidyl]ethanone, 2HCl]

IC50, 1000 to 10000 nM:
Cc1c(-c2ccc(OC3CCN(C(=O)OC4CCOCC4)CC3)cc2)ccc2cccnc12 [Example 556, Tetrahydropyran-4-yl 4-[4-(8-methyl-7-quinolyl)phenoxy]piperidine-1-carboxylate]
CCCONC(=O)N1CCC(Oc2ccc(-c3ccc4nccn4c3C)cc2)CC1 [Example 607, 4-[4-(5-Methylimidazo[1,2-a]pyridin-6-yl)phenoxy]-N-propoxy-piperidine-1-carboxamide]
Cc1c(-c2ccc(OC3CCN(C(=O)N4CCN(C(C)C)CC4)CC3)cc2)ccc2cccnc12 [Example 532, (4-Isopropylpiperazin-1-yl)-[4-[4-(8-methyl-7-quinolyl)phenoxy]-1-piperidyl]methanone, HCl]
Cc1c(-c2ccc(OC3CCN(C(=O)[C@H]4CCCN4)CC3)cc2)ccc2cccnc12 [Example 620, [4-[4-(8-Methyl-7-quinolyl)phenoxy]-1-piperidyl]-[(2R)-pyrrolidin-2-yl]methanone]

Same assay, conditions: 5 nM FASN, 150 μM NADPH, 10 μM acetyl-CoA, 25 μM malonyl-CoA, 90 minutes incubation; read-out: IC50 data for Compounds of Formulae I-V/V(a): Activity

IC50, 1 to 99 nM:
O=C(C1CC1)N1CCC(Oc2ccc(-c3cnc4sccc4c3)cc2)CC1 [Example 255, Cyclopropyl-[4-(4-thieno[2,3-b]pyridin-5-yl-phenoxy)-piperidin-1-yl]-methanone, TFA salt]
O=C(C1CC1)N1CCC(Oc2ccc(-c3cc4ccccc4cn3)cc2)CC1 [Example 44, Cyclopropyl-[4-(4-isoquinolin-3-yl-phenoxy)-piperidin-1-yl]-methanone]
O=C([C@H]1CCCO1)N1CCC(Oc2ccc(-c3ccc4cnc(C5CC5)cc4c3)cc2)CC1 [Example 480, {4-[4-(3-Cyclopropylisoquinolin-6-yl)-phenoxy]-piperidin-1-yl}-(R)-tetra-hy drofuran-2-yl-methanone]

IC50, 1000 to 10000 nM:
Cc1ccoc1C(=O)N1CCC(Oc2ccc(-c3cnc4ccccc4c3)cc2)CC1 [Example 121, (3-Methylfuran-2-yl)-[4-(4-quinolin-3-yl-phenoxy)-piperidin-1-yl]-methanone, HCl]
Cc1cc(C)c(C(=O)N2CCC(Oc3ccc(-c4cnc5ccccc5c4)cc3)CC2)o1 [Example 122, (3,5-Dimethylfuran-2-yl)-[4-(4-quinolin-3-yl-phenoxy)-piperidin-1-yl]-methanone, HCl]
CCC(=O)N1CCC(Oc2ccc(-c3cnc4ccc(OC)cc4c3)cc2)CC1 [Example 53, 1-{4-[4-(6-Methoxyquinolin-3-yl)-phenoxy]-piperidin-1-yl}-propan-1-one]
CCC(=O)N1CCC(Nc2ccc(-c3cnc4ccccc4c3)cc2)CC1 [Example 526, 1-[4-(4-Quinolin-3-yl-phenylamino)-piperidin-1-yl]-propan-1-one, HCl]
COc1ccc(-c2ccc(OC3CCN(C(=O)OC(C)(C)C)CC3)cc2)cc1OC [Example 489, 4-(3′,4′-Dimethoxybiphenyl-4-yloxy)-piperidine-1-carboxylic acid t-butyl ester]
O=C(c1ccsn1)N1CCC(Oc2ccc(-c3cnc4ccccc4c3)cc2)CC1 [Example 125, Isothiazol-3-yl-[4-(4-quinolin-3-yl-phenoxy)-piperidin-1-yl]-methanone, HCl]
O=CN1CCC(Oc2ccc(-c3cnc4ccccc4c3)cc2)CC1 [Example 153, 4-(4-Quinolin-3-yl-phenoxy)-piperidine-1-carbaldehyde, HCl]
CCC(=O)N1CCC(Oc2ccc(-c3ccc4c(C5CC5)nccc4c3)cc2)CC1 [Example 439, 1-{4-[4-(1-Cyclopropyl-isoquinolin-6-yl)-phenoxy]-piperidin-1-yl}-propan-1-one]
O=C(C1CC1)N1CCC(Oc2ccc(-c3cccc(Oc4ccccc4)c3)cc2)CC1 [Example 511, Cyclopropyl-[4-(3′-phenoxybiphenyl-4-yloxy)-piperidin-1-yl]-methanone]
COC(=O)N1CCC(Oc2ccc(-c3cnc4ccccc4c3)c(C)c2)CC1 [Example 208, 4-(3-Methyl-4-quinolin-3-yl-phenoxy)-piperidine-1-carboxylic acid methyl ester]
COc1cc(-c2cnc3ccccc3c2)ccc1OC1CCN(C(=O)C(C)C)CC1 [Example 197, 1-[4-(2-Methoxy-4-quinolin-3-yl-phenoxy)-piperidin-1-yl]-2-methyl-propan-1-one]
Cc1cc(-c2cnc3ccccc3c2)ccc1OC1CCN(C(=O)C(C)C)CC1 [Example 213, 2-Methyl-1-[4-(2-methyl-4-quinolin-3-yl-phenoxy)-piperidin-1-yl]-propan-1-one]
CCC(=O)N1CCC(Oc2ccc(-c3ccc(Cl)c(Cl)c3)cc2)CC1 [Example 500, 1-[4-(3′,4′-Dichlorobiphenyl-4-yloxy)-piperidin-1-yl]-propan-1-one]
CCC(=O)N1CCC(Oc2ccc(-c3ccc(OCc4ccccc4)cc3F)cc2)CC1 [Example 504, 1-[4-(4′-Benzyloxy-2′-fluoro-biphenyl-4-yloxy)-piperidin-1-yl]-propan-1-one]

IC50, 100 to 999 nM:
Cc1cnc(C)c2ccc(-c3ccc(OC4CCN(C(=O)C5CC5)CC4)cc3)cc12 [Example 470, Cyclopropyl-[4-[4-(1,4-dimethyl-6-isoquinolyl)phenoxy]-1-piperidyl]methanone, HCl]
CCC(=O)N1CCC(Oc2ccc(-c3cc4ccccc4nc3OC)cc2)CC1 [Example 18, 1-{4-[4-(2-Methoxyquinolin-3-yl)-phenoxy]-piperidin-1-yl}-propan-1-one]
CCC(=O)N1CCC(Oc2ccc(-c3ccc4c(C)nccc4c3C)cc2)CC1 [Example 472, 1-[4-[4-(1,5-Dimethyl-6-isoquinolyl)phenoxy]-1-piperidyl]propan-1-one HCl]
O=C(C1CCCC1)N1CCC(Oc2ccc(-c3cnc4ccccc4c3)cc2)CC1 [Example 102, Cyclopentyl-[4-(4-quinolin-3-yl-phenoxy)-piperidin-1-yl]-methanone, 2HCl]
O=C(C1CC1)N1CCC(Oc2ccc(-c3cnc4[nH]ccc4c3)cc2)CC1 [Example 33, Cyclopropyl-{4-[4-(1H-pyrrolo[2,3-b]pyridin-5-yl)-phenoxy]-piperidin-1-yl}-methanone]
Cc1nccc2cc(-c3ccc(OC4CCN(C(=O)C5CC(F)(F)CO5)CC4)cc3)ccc12 (stereo not shown) [Example 165]
O=C([C@H]1CCCO1)N1CCC(Oc2ccc(-c3ccc4cccnc4c3OCCN3CCOCC3)cc2)CC1 [Example 182, (4-{4-[8-(2-Morpholin-4-yl-ethoxy)-quinolin-7-yl]-phenoxy}-piperidin-1-yl)-(R)-tetrahydrofuran-2-yl-methanone, 2HCl]
